Data taken from patent US10745382B2 (BRISTOL-MYERS SQUIBB COMPANY, priority 2015, dated 2020).
pIC50: −log10 of the molar value. Read-outs that look alike come from different tables or passages of the source.

Target: T1, PD-1/PD-L1 (Homo sapiens, UniProt Q9NZQ7)
T1 construct: made in house; host or cells: HEK293T
Assay: PD-1/PD-L1 Homogenous Time-Resolved Fluorescence (HTRF) binding assay
Details: PD-L1-His 10 nM, PD-1-Ig 20 nM, read-out: Range or IC50
Procedure, shortened: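 Detection by europium cryptate anti-Ig plus APC anti-His (1 nM and 20 nM final) with HTRF signal. Buffer was dPBS, 0.1% BSA, 0.05% Tween-20.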

T1 sequence (Q9NZQ7 with tags, fused parts or gaps): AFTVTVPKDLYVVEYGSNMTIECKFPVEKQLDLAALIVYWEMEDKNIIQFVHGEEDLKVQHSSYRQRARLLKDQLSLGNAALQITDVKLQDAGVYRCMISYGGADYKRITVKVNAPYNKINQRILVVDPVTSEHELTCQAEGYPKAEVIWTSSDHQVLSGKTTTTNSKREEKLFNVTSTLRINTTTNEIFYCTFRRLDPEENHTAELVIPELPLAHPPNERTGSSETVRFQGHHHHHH

| SMILES | pIC50 (value given as range class) | pIC50 (numeric IC50) |
| --- | --- | --- |
| Cc1c(COc2cc(OCc3cncc(C#N)c3)c(CNC(CO)(CO)CO)cc2Cl)cccc1-c1cccc(C(=O)N2CCOCC2)c1C [Example 4058, 5-((4-chloro-2-(((1,3-dihydroxy-2-(hydroxymethyl)propan-2-yl)amino)methyl)-5-((2,2′-dimethyl-3′-(morpholine-4-carbonyl)-[1,1′-biphenyl]-3-yl)methoxy)phenoxy)methyl)nicotinonitrile] | 7.00 to 8.00 |  |
| Cc1c(COc2cc(OCc3cncc(C#N)c3)c(CNC(C)(CO)CO)cc2Cl)cccc1-c1cccc(OC[C@H]2CCN(CC(O)CO)C2)c1Cl (stereo partly drawn) [Example 2119, 5-((4-chloro-5-((2′-chloro-3′-(((3S)-1-(2,3-dihydroxypropyl)pyrrolidin-3-yl)methoxy)-2-methyl-[1,1′-biphenyl]-3-yl)methoxy)-2-(((1,3-dihydroxy-2-methylpropan-2-yl)amino)methyl)phenoxy)methyl)nicotinonitrile] | 8.00 to 9.68 |  |
| Cc1c(COc2cc(OCc3cncc(C#N)c3)c(CNC(CO)CO)cc2Cl)cccc1-c1cccc(OCCCN2CCC(O)(C(=O)O)CC2)c1Cl [Example 2056, 1-(3-((2-chloro-3′-((2-chloro-5-((5-cyanopyridin-3-yl)methoxy)-4-(((1,3-dihydroxypropan-2-yl)amino)methyl)phenoxy)methyl)-2′-methyl-[1,1′-biphenyl]-3-yl)oxy)propyl)-4-hydroxypiperidine-4-carboxylic Acid] | 8.00 to 9.68 |  |
| N=C(c1cncc(COc2cc(OCc3cccc(-c4cccc(OCCCN5CC[C@@H](O)C5)c4Cl)c3Cl)c(Cl)cc2CNC[C@H](O)CO)c1)N1CC[C@@H](O)C1 [Example 2101, (S)-3-((5-chloro-4-((2,2′-dichloro-3′-(3-((R)-3-hydroxypyrrolidin-1-yl)propoxy)-[1,1′-biphenyl]-3-yl)methoxy)-2-((5-(((R)-3-hydroxypyrrolidin-1-yl)(imino)methyl)pyridin-3-yl)methoxy)benzyl)amino)propane-1,2-diol] | 8.00 to 9.68 |  |
| Cc1c(COc2cc(OCc3cncc(C#N)c3)c(CNC(CO)CO)cc2Cl)cccc1-c1cccc(Oc2cccc3c2CCNC3=O)c1C [Example 2354, 5-((4-chloro-2-(((1,3-dihydroxypropan-2-yl)amino)methyl)-5-((2,2′-dimethyl-3′-((1-oxo-1,2,3,4-tetrahydroisoquinolin-5-yl)oxy)-[1,1′-biphenyl]-3-yl)methoxy)phenoxy)methyl)nicotinonitrile] | 7.00 to 8.00 |  |
| CCNC(=O)c1cccc(-c2cccc(COc3cc(OCc4cc(F)cc(F)c4)c(CN4CCOC[C@H]4C(=O)O)cc3Cl)c2C)c1C [Example 4020, (S)-4-(5-chloro-2-((3,5-difluorobenzyl)oxy)-4-((3′-(ethylcarbamoyl)-2,2′-dimethyl-[1,1′-biphenyl]-3-yl)methoxy)benzyl)morpholine-3-carboxylic Acid] | 5.00 to 5.70 |  |

Now from value to compound:

| pIC50 (value given as range class) | pIC50 (numeric IC50) | SMILES |
| --- | --- | --- |
| 8.00 to 9.68 |  | Cc1c(COc2cc(OCc3cncc(C#N)c3)c(CN3CCNC(=O)C3)cc2Cl)cccc1-c1cccc(OCCCN2CC[C@@H](O)C2)c1C [Example 2331, (R)-5-((4-chloro-5-((3′-(3-(3-hydroxypyrrolidin-1-yl)propoxy)-2,2′-dimethyl-[1,1′-biphenyl]-3-yl)methoxy)-2-((3-oxopiperazin-1-yl)methyl)phenoxy)methyl)nicotinonitrile] |
| 7.00 to 8.00 |  | Cc1c(COc2cc(OCc3cncc(C#N)c3)c(CN3CCCC[C@H]3C(=O)O)cc2Cl)cccc1-c1ccc2c(c1)OC(CCN1CC[C@H](O)C1)CO2 (mixture of isomers) [Example 1503, (2S)-1-(5-chloro-2-((5-cyanopyridin-3-yl)methoxy)-4-((3-(3-(2-((S)-3-hydroxypyrrolidin-1-yl)ethyl)-2,3-dihydrobenzo[b][1,4]dioxin-6-yl)-2-methylbenzyl)oxy)benzyl)piperidine-2-carboxylic acid] |
| 8.00 to 9.68 |  | Cc1c(COc2cc(OCc3cncc(C#N)c3)c(CN3CCCC[C@H]3C(=O)O)cc2Cl)cccc1-c1cccc(OCCCN2CC[C@@H](F)C2)c1C [Example 3057, (S)-1-(5-chloro-2-((5-cyanopyridin-3-yl)methoxy)-4-((3′-(3-((R)-3-fluoropyrrolidin-1-yl)propoxy)-2,2′-dimethyl-[1,1′-biphenyl]-3-yl)methoxy)benzyl)piperidine-2-carboxylic Acid] |
| 8.00 to 9.68 |  | Cc1c(COc2cc(OCc3cncc(C#N)c3)c(CN3CCCC[C@H]3C(=O)O)cc2Cl)cccc1-c1cccc(OCCCN2CC[C@@H](O)C2)c1 [Example 1013, (S)-1-(5-chloro-2-((5-cyanopyridin-3-yl)methoxy)-4-((3′-(3-((R)-3-hydroxypyrrolidin-1-yl)propoxy)-2-methyl-[1,1′-biphenyl]-3-yl)methoxy)benzyl)piperidine-2-carboxylic Acid] |
| 5.70 to 7.00 |  | Cc1c(COc2cc(OCc3cncc(C#N)c3)c(CN3CCCC[C@H]3C(=O)O)cc2Cl)cccc1-c1cccc(C(=O)N2CCN(C)CC2)c1C [Example 3059, (S)-1-(5-chloro-2-((5-cyanopyridin-3-yl)methoxy)-4-((2,2′-dimethyl-3′-(4-methylpiperazine-1-carbonyl)-[1,1′-biphenyl]-3-yl)methoxy)benzyl)piperidine-2-carboxylic Acid] |
| 8.00 to 9.68 |  | Cc1c(COc2cc(OCc3cncc(C#N)c3)c(CN3CCCC[C@H]3C(=O)O)cc2Cl)cccc1-c1cccc(OCCCN2CCC(O)(c3ccccc3)C2)c1C (stereo partly drawn) [Example 3040, (2S)-1-(5-chloro-2-((5-cyanopyridin-3-yl)methoxy)-4-((3′-(3-(3-hydroxy-3-phenylpyrrolidin-1-yl)propoxy)-2,2′-dimethyl-[1,1′-biphenyl]-3-yl)methoxy)benzyl)piperidine-2-carboxylic Acid] |
| 5.00 to 5.70 |  | Cc1c(COc2cc(OCc3cncc(C#N)c3)c(CO)cc2Cl)cccc1-c1cc(OCCCN2CC[C@@H](O)C2)cc(OCCCN2CC[C@@H](O)C2)c1 [Example 3063, 5-((5-((3′,5′-bis(3-((R)-3-hydroxypyrrolidin-1-yl)propoxy)-2-methyl-[1,1′-biphenyl]-3-yl)methoxy)-4-chloro-2-(hydroxymethyl)phenoxy)methyl)nicotinonitrile] |
| 7.00 to 8.00 |  | Cc1c(COc2cc(OCc3cncc(C#N)c3)c(CNC(CO)CO)cc2Cl)cccc1-c1cccc(C(=O)N2CCOCC2)c1C [Example 4052, 5-((4-chloro-2-(((1,3-dihydroxypropan-2-yl)amino)methyl)-5-((2,2′-dimethyl-3′-(morpholine-4-carbonyl)-[1,1′-biphenyl]-3-yl)methoxy)phenoxy)methyl)nicotinonitrile] |
|  | 8.05 | Cc1c(COc2cc(OCc3cncc(C#N)c3)c(CN[C@@](C)(CO)C(=O)O)cc2Cl)cccc1-c1cccc(OCCCN2CCC(O)C2)c1C(F)(F)F (stereo in doubt) [Example 3011, (S)-2-((5-chloro-2-((5-cyanopyridin-3-yl)methoxy)-4-((3′-(3-((R)-3-hydroxypyrrolidin-1-yl)propoxy)-2-methyl-2′-(trifluoromethyl)-[1,1′-biphenyl]-3-yl)methoxy)benzyl)amino)-3-hydroxy-2-methylpropanoic Acid] |
| 8.00 to 9.68 |  | Cc1c(COc2cc(OCc3cncc(C#N)c3)c(CN[C@@](C)(CO)C(=O)O)cc2Cl)cccc1-c1cccc(O[C@H](C)CCN2CC[C@@H](O)C2)c1C [Example 1525, (S)-2-((5-chloro-2-((5-cyanopyridin-3-yl)methoxy)-4-((3′-(((R)-4-((R)-3-hydroxypyrrolidin-1-yl)butan-2-yl)oxy)-2,2′-dimethyl-[1,1′-biphenyl]-3-yl)methoxy)benzyl)amino)-3-hydroxy-2-methylpropanoic acid] |
